# What was measured:
# [1] = system: CaoV-3; test: Growth inhibition of tumor cells, CaoV-3; format: cell-based; conditions: Homo sapiens, read-out: IC50 against tumor cells, CaoV-3
# Procedure: Lung cancer cells A549 were separated into a 96-well plate and respectively added with 10 mM TZ47 stock solution to final concentrations of 0 μM, 0.1 μM, 0.5 μM, 1 μM, 2 μM, 4 μM and 8 μM in respective wells. Then the 96-well plate was incubated at 37° C. for 48 h and the growth of the cells was analyzed by a CCK-8 method. […] It can be seen from Table 1 that TZ47 also plays a desirable role in inhibiting the growth of other cancer cells including colorectal cancer, leukemia, liver cancer, melanoma, breast cancer and ovarian cancer.
# [2] = target: AURKB (Homo sapiens, UniProt Q96GD4); test: Microscale thermophoresis (MST) binding to AURKB protein; set-up: made in house; host or cells: E. coli BL21; conditions: prokaryotically expressed GST-AURKB, read-out: dissociation constant of binding to AURKB protein
# Chain of AURKB (Q96GD4 1-345 isoform Q96GD4-5): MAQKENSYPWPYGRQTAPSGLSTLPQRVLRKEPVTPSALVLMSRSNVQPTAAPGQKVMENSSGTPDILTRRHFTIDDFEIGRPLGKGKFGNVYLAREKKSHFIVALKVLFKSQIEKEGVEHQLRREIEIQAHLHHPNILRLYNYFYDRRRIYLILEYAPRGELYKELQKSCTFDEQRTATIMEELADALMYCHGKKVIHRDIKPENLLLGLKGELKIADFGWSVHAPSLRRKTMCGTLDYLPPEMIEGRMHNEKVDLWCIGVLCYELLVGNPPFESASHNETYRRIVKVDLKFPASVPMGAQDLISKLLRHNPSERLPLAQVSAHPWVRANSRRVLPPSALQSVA
# Procedure: Thus, it is speculated that the treatment affected the activity of a kinase which was able to phosphorylate the H3S10. The following procedures were conducted to verify whether TZ47 inhibited the activity of AURKB directly. First, prokaryotic expression of AURKB protein and purification were performed and then a microscale thermophoresis (MST) was used to detect the binding between TZ47 and AURKB protein by testing the change of microscale thermophoresis caused by the hydrated layer (generally derived from the change of the structure/conformation of biomolecules) based on the directional movement of particles in a microscopic temperature gradient. […] Flag-tagged AURKB protein was then enriched by M2-flag beads (anti-Flag antibody conjugated) from the lysed liquid of 293T cells and used in the in-vitro kinase activity analysis. It can be seen from FIGS. 6A-6B that the Flag-AURKB protein had kinase activity and can phosphorylate histone H3.
# The cDNA of 293T cells of human was used as the template to amplify the AURKB CDS sequence in the presence of LATaq enzyme. […]
# 1 mL of the eluent was added to the EP tube containing GST beads, rotated at 4° C. for 30 min and centrifuged at 3,000 rpm for 3 min. […] An appropriate amount of the combined supernatant was subjected to SDS-PAGE for the determination of elution efficiency and protein purity and quantity. • b. […]
compound,measurement,setting,value
c1ccc2c(Cc3[nH]c4ccccc4c3Cc3c[nH]c4ccccc34)c[nH]c2c1 [TZ47],IC50,[1],4470 ± 120 nM
same,Kd,[2],135 ± 2 nM
